# Assay results: patent publication US12558329B2 (New York University, priority 2021, dated 2026)
# “Also recorded” adds a separate entry of the source.
# Tested on: MIAPACA2 cells
# Assay: 18O2-GASSP labelling of MIAPACA2 cells treated with MG132, IOX1, DFO or ascorbate
# Format: cell-based, human
# Procedure: As additional controls, MIAPACA2 cells were treated with an iron chelator (DFO, FIG. 5E-5F), a proteasome inhibitor (MG132) to induce proteotoxic stress, and physiological levels of ascorbate, an antioxidant, to determine the effects of ROS on ^18O-labelling. Labelling of ^18O γ-butyrobetaine was blocked by IOX1 and DFO, consistent with the fact that trimethyllysine hydroxylase (TMLH) is an iron-dependent dioxygenase (FIGS. 7A-7D). […] Total levels of ^18O labelled methionine sulfoxide increased upon MG132 treatment and decreased following ascorbate treatment (FIGS. 7I-7M)^10.
# All steps involved in setting up labelling with ^18O2 were performed at room temperature and inside a chemical fume hood. The procedure may vary depending on the type and number of tissue culture plates in the chamber and the amount of media in the plates. Users must test the system by using ^16O2:CO2:N2 or other unlabelled gases to optimize conditions for their needs and avoid consumption of costly labelled gases. Cells were treated with or without 5 μM MG132, 500 μM IOX1, 250 μM DFO, or 70 μM ascorbate, before placing tissue culture plates into the modular incubator chamber (MIC) containing a wireless oxygen sensor and a 15 cm dish of water to maintain humidity. Next, the clamps were closed to form an air-tight seal between the lid and platform of the MIC. […] N2 flushing was repeated for a total of three times, or until the sensor in the chamber stabilized at 0% O2 for 10 minutes.
# Next, the inlet valve was opened and the ^18O2:5% CO2:N2 gaseous mixture was flushed into the system at a rate of 2.5 L/min. Subsequently, the outlet valve was immediately opened to allow gas flow out of the chamber, and to release the pressure in the system. The chamber was injected with the ^18O2:5% CO2:N2 gaseous mixture for 1 minute before the inlet and outlet valves were closed simultaneously. The chamber was allowed to equilibrate for 5 minutes. This process was repeated seven times, or until the desired oxygen concentration was reached and was stable. For 3%, 1%, and 0.2% ^18O2 labelling studies, the chamber was infused with 5%:5%:90%, 1.5%:5%:93.5%, and 0.5%:5%:94.5% ^18O2:CO2:N2, respectively. The ^18O2-infused MIC was then placed in a 37° C., 5% CO2 tissue culture incubator for 24 hours. The oxygen concentration in the chamber was monitored regularly. Oxygen measurements after 20 hours was not feasible due to the battery life of the sensor. At the end of the experiment, the chamber was opened inside a chemical fume hood before metabolite extraction.
# For metabolomics, briefly, cells were washed in 4° C. 0.9% saline and metabolites were extracted with 46% methanol:23% H2O:[…] chloroform that contained a labelled amino acid standard mix (MSK-A2-1.2, Cambridge Isotope Laboratories, Inc.). Enzymatic assay samples were extracted using 80% methanol: 20% H2O that contained labelled amino acid standards. Extracts were placed into 1.5 mL Eppendorf tubes, vortexed at 4° C. for 10 min and centrifuged at 4° C. for 10 min at 17,200×g in a microcentrifuge. The aqueous phase was transferred to vials for GC-MS or Eppendorf tubes for LC-MS. Polar samples were evaporated in a SpeedVac and samples were resolved by GC-MS or LC-MS. Lipid samples were dried using a stream of N2 (for ^18O labelling studies) or air. Metabolite and lipid extracts were submitted to the NYULMC Metabolomics Core Resource Laboratory.
# For polar metabolomics, the LC column was a Millipore ZIC-pHILIC (2.1×150 […], 5 μm bead size) coupled to a Dionex UltiMate 3000 system. The column oven temperature was held at 25° C. The flow rate was 100 μL/min, and the injection volume was 1 μL. Buffer A was 10 mM ammonium carbonate in water, pH 9, and Buffer B was neat acetonitrile. The gradient profile was 80-20% B (0-30 min), 20-80% B (30-31 min), and 80-80% B (31-42 min). MS Analyses were carried out on a Thermo Q Exactive HF mass spectrometer using a heated electrospray ionization (HESI) source. […]
smiles,measurement,setting,value
O=C(O)c1ccc(O)c2ncccc12 [IOX1],18O labelling of methionine,"3%, 1%, 0.2% 18O2, 24 hours",sensitive; also recorded: blocked
same,18O labelling of γ-butyrobetaine,"3%, 1%, 0.2% 18O2, 24 hours",sensitive; also recorded: blocked
same,18O labelling of 4-HMA,"MIAPACA2, 3%, 1%, 0.2% 18O2, 24 hours, 500 μM IOX1, 250 μM DFO",sensitive; also recorded: significantly attenuated
same,4-HMA levels,"MIAPACA2, 18O2 labelling, 24 hours, 500 μM IOX1, 250 μM DFO, 70 μM ascorbate",significantly attenuated
